Experimental data published in ChEMBL document CHEMBL1201862, “PubChem BioAssay data set” (2004).
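These data come from cells grown in 96-well plates and exposed to compound for 48 hours at five concentrations. GI50: concentration for 50% inhibition of growth.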 Active and inactive are the calls of the source. No stated cut-off is given here; in the data, active = GI50 up to about 1.1 µM and inactive = higher.

Assays:
Assay in all cases: growth of human tumour cells (NCI), 48 h
LOX IMVI = system: LOX IMVI
EKVX = system: EKVX
SNB-19 = system: SNB-19
NCI-H460 = system: NCI-H460
K562 = system: K562
SW-620 = system: SW-620
RPMI-8226 = system: RPMI-8226
COLO 205 = system: COLO 205
SK-MEL-5 = system: SK-MEL-5
SN12C = system: SN12C
HT-29 = system: HT-29
SF-268 = system: SF-268
OVCAR-4 = system: OVCAR-4
UACC-257 = system: UACC-257
UO-31 = system: UO-31
HCC 2998 = system: HCC 2998
NCI-H226 = system: NCI-H226
OVCAR-8 = system: OVCAR-8
HOP-62 = system: HOP-62
Malme-3M = system: Malme-3M

| Compound | GI50 (LOX IMVI) | GI50 (EKVX) | GI50 (SNB-19) | GI50 (NCI-H460) | GI50 (K562) | GI50 (SW-620) | GI50 (RPMI-8226) | GI50 (COLO 205) | GI50 (SK-MEL-5) | GI50 (SN12C) | GI50 (HT-29) | GI50 (SF-268) | GI50 (OVCAR-4) | GI50 (UACC-257) | GI50 (UO-31) | GI50 (HCC 2998) | GI50 (NCI-H226) | GI50 (OVCAR-8) | GI50 (HOP-62) | GI50 (Malme-3M) |
| --- | --- | --- | --- | --- | --- | --- | --- | --- | --- | --- | --- | --- | --- | --- | --- | --- | --- | --- | --- | --- |
| Nc1nc(Cl)cc(NCCCCO)n1 | > 100 µM (inactive) | > 100 µM (inactive) | > 100 µM (inactive) | > 100 µM (inactive) | > 100 µM (inactive) | > 100 µM (inactive) | > 100 µM (inactive) | > 100 µM (inactive) | > 100 µM (inactive) | > 100 µM (inactive) | > 100 µM (inactive) | > 100 µM (inactive) | > 100 µM (inactive) | > 100 µM (inactive) | > 100 µM (inactive) | > 100 µM (inactive) | > 100 µM (inactive) | > 100 µM (inactive) | > 10 µM (inactive) | > 100 µM (inactive) |
| O=[N+]([O-])/C(C(Cl)=C(Cl)Cl)=C1\Nc2ccccc2O1 | > 100 µM (inactive) | > 100 µM (inactive) | > 100 µM (inactive) | > 100 µM (inactive) | > 100 µM (inactive) | > 100 µM (inactive) | 24.3 µM (inactive) | 60.1 µM (inactive) | > 100 µM (inactive) | 45.9 µM (inactive) | > 100 µM (inactive) | > 100 µM (inactive) | 33.8 µM (inactive) | > 100 µM (inactive) | 14.5 µM (inactive) | > 100 µM (inactive) | 27.5 µM (inactive) | 25.2 µM (inactive) | 47.4 µM (inactive) | 27.9 µM (inactive) |
| Nc1nc(SCCc2ccccc2)nc2nc3c(c(-c4ccccc4)c12)CCCC3 | > 100 µM (inactive) | > 100 µM (inactive) | > 100 µM (inactive) | > 100 µM (inactive) | > 100 µM (inactive) | > 100 µM (inactive) | > 100 µM (inactive) | > 100 µM (inactive) | > 10 µM (inactive) | > 100 µM (inactive) | > 100 µM (inactive) | > 100 µM (inactive) | 40.9 µM (inactive) | > 100 µM (inactive) | > 100 µM (inactive) |  |  | > 100 µM (inactive) | 66.1 µM (inactive) | > 100 µM (inactive) |
| COn1oc(=O)c2ccccc21 | > 100 µM (inactive) | > 100 µM (inactive) | > 100 µM (inactive) | > 100 µM (inactive) | > 100 µM (inactive) | > 100 µM (inactive) | > 100 µM (inactive) | > 100 µM (inactive) | > 100 µM (inactive) | > 100 µM (inactive) | > 100 µM (inactive) | > 100 µM (inactive) | > 100 µM (inactive) | > 100 µM (inactive) | > 100 µM (inactive) | > 100 µM (inactive) | > 100 µM (inactive) | > 100 µM (inactive) | > 100 µM (inactive) | 91.2 µM (inactive) |
| CCOC(=O)CC1(c2cccc3ccccc23)OC(=O)c2ccccc21 (stereo not given) | 60.4 µM (inactive) | 63.2 µM (inactive) | 50.9 µM (inactive) | 37.6 µM (inactive) | 37.9 µM (inactive) | 79.4 µM (inactive) | 23.7 µM (inactive) | 30.4 µM (inactive) | 21.3 µM (inactive) | 43.1 µM (inactive) | 49.8 µM (inactive) | 32.7 µM (inactive) | 40.4 µM (inactive) | 56.4 µM (inactive) | 23.9 µM (inactive) | 62.5 µM (inactive) | 67 µM (inactive) | 45.5 µM (inactive) |  | 27.5 µM (inactive) |
| CC(C)(C)c1ccc2c(c1)OP1(Oc3cccc4cccnc34)(O2)Oc2ccc(C(C)(C)C)cc2O1 | 3.68 µM (inactive) | 3.08 µM (inactive) | 14.2 µM (inactive) | 3.04 µM (inactive) | 2.43 µM (inactive) | 2.25 µM (inactive) | 0.597 µM (active) | 2.85 µM (inactive) | 3.27 µM (inactive) | 12.8 µM (inactive) | 3.89 µM (inactive) | 6.56 µM (inactive) | 2.48 µM (inactive) | 2.54 µM (inactive) | 4.42 µM (inactive) | 9.89 µM (inactive) | 8.49 µM (inactive) | 3.92 µM (inactive) | 22.8 µM (inactive) | 5.28 µM (inactive) |
| O=C(NC(Cc1ccc(I)cc1)C(=O)O)c1cccc(Br)c1 (stereo not given) | > 95.9 µM (inactive) | > 61.7 µM (inactive) | 99.1 µM (inactive) | 96.8 µM (inactive) | 48.6 µM (inactive) | > 100 µM (inactive) | 47.8 µM (inactive) | > 100 µM (inactive) | > 100 µM (inactive) | > 100 µM (inactive) | > 100 µM (inactive) | > 100 µM (inactive) | > 92.9 µM (inactive) | > 100 µM (inactive) | > 100 µM (inactive) | 22.4 µM (inactive) | > 100 µM (inactive) | > 100 µM (inactive) | 67.3 µM (inactive) | 70.1 µM (inactive) |
| CON(C)c1nc(N)c(C#N)c(C#N)c1C#N | > 10 µM (inactive) | > 10 µM (inactive) | > 10 µM (inactive) | > 10 µM (inactive) |  | > 10 µM (inactive) | > 10 µM (inactive) | > 10 µM (inactive) | > 10 µM (inactive) | > 10 µM (inactive) | > 10 µM (inactive) | > 10 µM (inactive) | > 10 µM (inactive) |  | > 10 µM (inactive) | > 10 µM (inactive) | > 10 µM (inactive) | > 10 µM (inactive) | > 10 µM (inactive) | > 10 µM (inactive) |
| CSc1nc(NC2OCC(O)C(O)C2O)c(N)c(=O)n1C (stereo not given) | > 100 µM (inactive) | > 100 µM (inactive) | > 100 µM (inactive) | > 100 µM (inactive) | > 100 µM (inactive) | > 100 µM (inactive) | > 100 µM (inactive) | > 100 µM (inactive) | > 100 µM (inactive) | > 100 µM (inactive) | > 100 µM (inactive) | > 100 µM (inactive) | > 100 µM (inactive) | > 100 µM (inactive) | > 85.5 µM (inactive) | > 100 µM (inactive) | > 100 µM (inactive) | > 100 µM (inactive) | > 100 µM (inactive) | > 100 µM (inactive) |
| CCC1NC(/N=N/c2ccc([N+](=O)[O-])cc2)(P(=O)(OC(C)C)OC(C)C)OC1=O (stereo not given) |  | > 100 µM (inactive) | > 100 µM (inactive) |  | > 100 µM (inactive) | > 100 µM (inactive) | > 100 µM (inactive) | > 100 µM (inactive) | > 100 µM (inactive) | > 100 µM (inactive) | > 100 µM (inactive) | > 100 µM (inactive) | > 100 µM (inactive) | > 100 µM (inactive) | > 100 µM (inactive) | > 100 µM (inactive) |  | > 100 µM (inactive) | > 100 µM (inactive) | > 100 µM (inactive) |
| C/C(=C\c1ccccc1)n1c(=O)cc(C)n1C | > 100 µM (inactive) | > 100 µM (inactive) | > 100 µM (inactive) | > 100 µM (inactive) | > 100 µM (inactive) | > 100 µM (inactive) | > 100 µM (inactive) | > 100 µM (inactive) | > 100 µM (inactive) | > 100 µM (inactive) | > 100 µM (inactive) | > 100 µM (inactive) | > 100 µM (inactive) | > 100 µM (inactive) | > 100 µM (inactive) | > 100 µM (inactive) | > 100 µM (inactive) | > 100 µM (inactive) | > 100 µM (inactive) |  |
| O=P(Nc1ccc(Cl)cc1)(Oc1ccccc1)N(CCCl)CCCl (stereo not given) |  | > 100 µM (inactive) |  |  | > 100 µM (inactive) | > 100 µM (inactive) |  | > 100 µM (inactive) | > 100 µM (inactive) | > 100 µM (inactive) | > 100 µM (inactive) | > 100 µM (inactive) | > 100 µM (inactive) | > 100 µM (inactive) | > 100 µM (inactive) | > 100 µM (inactive) | > 100 µM (inactive) | > 100 µM (inactive) | > 100 µM (inactive) | > 100 µM (inactive) |
| O=S(O)CCCCCSSc1ccccc1 | 20 µM (inactive) | > 100 µM (inactive) | > 100 µM (inactive) | 68.9 µM (inactive) | 15.3 µM (inactive) |  | 18.5 µM (inactive) |  |  | 27.8 µM (inactive) | 84.9 µM (inactive) | 15.8 µM (inactive) | > 100 µM (inactive) | 39 µM (inactive) | 31.6 µM (inactive) | > 100 µM (inactive) |  |  | > 100 µM (inactive) | 10 µM (inactive) |
| O=C1C[C@H](c2ccccc2)C2(C(=O)c3ccccc3C2=O)[C@H](c2ccccc2)C1 |  |  | > 100 µM (inactive) | > 100 µM (inactive) | > 100 µM (inactive) |  | > 100 µM (inactive) | 88.7 µM (inactive) | 63.1 µM (inactive) | > 100 µM (inactive) | > 100 µM (inactive) |  | > 100 µM (inactive) |  | > 100 µM (inactive) | > 100 µM (inactive) | > 100 µM (inactive) | > 100 µM (inactive) | 24.3 µM (inactive) | > 100 µM (inactive) |
| Oc1cc(-c2ccc(Cl)cc2)nc2ncccc12 | 49 µM (inactive) | 52.2 µM (inactive) | 64.1 µM (inactive) |  | 11.5 µM (inactive) | 31.1 µM (inactive) | 24.3 µM (inactive) | 21.7 µM (inactive) |  | 75.9 µM (inactive) | 34.9 µM (inactive) | 53.2 µM (inactive) | 56.6 µM (inactive) | 53.5 µM (inactive) | 33 µM (inactive) | 69 µM (inactive) | 44.6 µM (inactive) | 61.9 µM (inactive) | 55 µM (inactive) | 28.6 µM (inactive) |
